Values of other authors, collected in patent US20050176650A1, “Stable parenteral formulation of levomepromazine and a method for stabilizing said formulation” (Xanodyne Pharmacal, Inc., priority 2004, published 2005).

Key:
[1] = prior art description
traumatic shock = details: rats; prior art description
[2] = rats; prior art description

COc1ccc2c(c1)N(C[C@H](C)CN(C)C)c1ccccc1S2 [Levomepromazine, (−)-(2R)-3-(2-methoxy-10H-phenothiazin-10-yl)-N,N,2-trimethylpropan-1-amine]
hypothermic action, potency relative to chlorpromazine [1]: three times more potent than that of chlorpromazine
protection against traumatic shock (traumatic shock): readily protect against traumatic shock
local anesthesia following parasciatic injections [2]: produce deep local anesthesia
